# Legend:
# BRG1 = target: T1, BRG1 (Homo sapiens, UniProt P51532); experiment: Immunofluorescence assay for BRG1 degradation in SW1573 cells; format: cell-based; settings: 20 hours incubation; for DC50: immunofluorescence mean nuclear signal, read-out: BRG1 IF Degradation IC50; for Dmax: SW1573, 20 h, normalized to a known degrader control, read-out: BRG1 IF Degradation Sinf (%)
# T1 construct: either BRM primary antibody (Cell signaling Cat #11966) or BRG primary antibody (Abcam, ab 110641); endogenous in cells; host or cells: SW1573
# Method: (§1) Example B-2: Immunofluorescence Assay for BRM and BRG1 Degraders
# (§2) SW1573 cells were seeded at 3000 cells/well in 384 well plates. The next day, compounds were added using an Echo dispenser. After 20 hours of incubation with compound, cells were fixed with 4% formaldehyde then permeabilized with 0.2% Triton X-100 and blocked with 10% FCS. Fixed and permeabilized cells were treated overnight at 4° C. with either BRM primary antibody (Cell signaling Cat #11966) or BRG primary antibody (Abcam, ab 110641). Finally, cells were treated with fluorescently labeled secondary antibodies for 1 hr (Donkey anti-Rabbit IgG AF488, Life Technologies, A21206) and Hoechst nuclear stain (#H3569) was added for 30 minutes. Cells were washed with PBS in between each step and before imaging on an Opera Phenix microscope (Perkin Elmer). Harmony software (Perking Elmer) was used to quantify the mean nuclear signaling intensity of BRM or BRG signaling per cell in each well. Dose responses were determined from the concentration dependent response of mean nuclear signal intensity with data normalized to a known degrader control. Dose response curves were fit to a floating maximum to allow for calculation of the Dmax.
# (§3) Note that, in Table 5, the “Compound Number” corresponds to that used in Table 1. In Table 5, for BRM and BRG1 IF degradation IC50 (μM): A indicates <0.010 μM, B indicates 0.010-0.10 μM, and C indicates >0.10 μM; and for BRM and BRG1 IF degradation Sinf % D indicates 0-−30%, E indicates −30%-−70%, F indicates −71%-−120% and ND indicates the value was not determined.
# BRM = BRM (Homo sapiens, UniProt P51531); experiment: Immunofluorescence assay for BRM degradation in SW1573 cells; format: cell-based; design: treated overnight at 4° C. with either BRM primary antibody (Cell signaling Cat #11966) or BRG primary antibody; endogenous in cells; host or cells: SW1573; settings: 20 hours incubation; for DC50: immunofluorescence mean nuclear signal, read-out: BRM IF Degradation IC50; for BRM IF Degradation Sinf (%): normalized to a known degrader control
# Method: as §1, §2, §3
# T1 sequence (P51532 whole entry): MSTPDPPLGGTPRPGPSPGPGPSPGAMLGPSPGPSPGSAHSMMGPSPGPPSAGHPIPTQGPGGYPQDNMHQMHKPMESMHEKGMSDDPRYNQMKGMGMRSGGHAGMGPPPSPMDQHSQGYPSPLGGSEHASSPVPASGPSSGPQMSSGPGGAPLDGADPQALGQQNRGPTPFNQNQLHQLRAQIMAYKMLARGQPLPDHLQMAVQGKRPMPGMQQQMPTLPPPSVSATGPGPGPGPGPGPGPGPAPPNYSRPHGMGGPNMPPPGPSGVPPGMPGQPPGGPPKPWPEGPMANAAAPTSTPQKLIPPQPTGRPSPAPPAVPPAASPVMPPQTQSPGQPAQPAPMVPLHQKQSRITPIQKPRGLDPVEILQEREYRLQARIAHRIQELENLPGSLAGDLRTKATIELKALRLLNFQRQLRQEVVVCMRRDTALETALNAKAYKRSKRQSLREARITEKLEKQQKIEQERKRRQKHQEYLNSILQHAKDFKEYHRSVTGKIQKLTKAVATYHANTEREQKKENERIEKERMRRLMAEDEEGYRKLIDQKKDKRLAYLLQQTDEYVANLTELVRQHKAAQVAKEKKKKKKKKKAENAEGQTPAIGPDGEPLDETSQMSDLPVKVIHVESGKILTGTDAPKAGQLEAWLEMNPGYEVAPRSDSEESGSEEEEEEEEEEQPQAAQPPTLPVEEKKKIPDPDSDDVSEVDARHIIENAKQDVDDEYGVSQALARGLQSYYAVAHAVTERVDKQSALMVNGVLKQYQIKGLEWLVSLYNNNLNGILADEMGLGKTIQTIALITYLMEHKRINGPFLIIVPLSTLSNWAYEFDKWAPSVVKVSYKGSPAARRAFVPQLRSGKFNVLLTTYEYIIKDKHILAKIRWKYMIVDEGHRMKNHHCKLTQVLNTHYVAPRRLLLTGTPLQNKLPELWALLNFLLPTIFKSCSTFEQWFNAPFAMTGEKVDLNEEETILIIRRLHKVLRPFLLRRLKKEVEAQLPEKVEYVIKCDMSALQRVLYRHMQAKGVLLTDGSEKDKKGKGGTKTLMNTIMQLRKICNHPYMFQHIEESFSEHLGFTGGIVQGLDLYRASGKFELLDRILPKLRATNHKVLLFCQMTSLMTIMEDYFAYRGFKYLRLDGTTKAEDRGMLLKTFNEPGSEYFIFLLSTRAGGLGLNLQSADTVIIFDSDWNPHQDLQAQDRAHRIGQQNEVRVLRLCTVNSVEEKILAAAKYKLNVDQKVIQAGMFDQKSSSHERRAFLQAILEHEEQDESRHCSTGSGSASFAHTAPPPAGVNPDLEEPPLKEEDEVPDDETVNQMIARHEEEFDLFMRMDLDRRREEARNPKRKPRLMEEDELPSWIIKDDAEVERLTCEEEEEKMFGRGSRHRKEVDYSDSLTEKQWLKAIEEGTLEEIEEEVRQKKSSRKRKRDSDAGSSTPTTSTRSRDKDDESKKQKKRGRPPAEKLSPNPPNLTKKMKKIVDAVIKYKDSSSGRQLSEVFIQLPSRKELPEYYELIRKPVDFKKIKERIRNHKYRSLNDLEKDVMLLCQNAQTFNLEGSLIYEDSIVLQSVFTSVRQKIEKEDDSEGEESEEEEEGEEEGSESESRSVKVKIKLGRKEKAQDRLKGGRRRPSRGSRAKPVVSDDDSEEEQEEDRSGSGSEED
# Sequence of BRM (P51531 whole entry): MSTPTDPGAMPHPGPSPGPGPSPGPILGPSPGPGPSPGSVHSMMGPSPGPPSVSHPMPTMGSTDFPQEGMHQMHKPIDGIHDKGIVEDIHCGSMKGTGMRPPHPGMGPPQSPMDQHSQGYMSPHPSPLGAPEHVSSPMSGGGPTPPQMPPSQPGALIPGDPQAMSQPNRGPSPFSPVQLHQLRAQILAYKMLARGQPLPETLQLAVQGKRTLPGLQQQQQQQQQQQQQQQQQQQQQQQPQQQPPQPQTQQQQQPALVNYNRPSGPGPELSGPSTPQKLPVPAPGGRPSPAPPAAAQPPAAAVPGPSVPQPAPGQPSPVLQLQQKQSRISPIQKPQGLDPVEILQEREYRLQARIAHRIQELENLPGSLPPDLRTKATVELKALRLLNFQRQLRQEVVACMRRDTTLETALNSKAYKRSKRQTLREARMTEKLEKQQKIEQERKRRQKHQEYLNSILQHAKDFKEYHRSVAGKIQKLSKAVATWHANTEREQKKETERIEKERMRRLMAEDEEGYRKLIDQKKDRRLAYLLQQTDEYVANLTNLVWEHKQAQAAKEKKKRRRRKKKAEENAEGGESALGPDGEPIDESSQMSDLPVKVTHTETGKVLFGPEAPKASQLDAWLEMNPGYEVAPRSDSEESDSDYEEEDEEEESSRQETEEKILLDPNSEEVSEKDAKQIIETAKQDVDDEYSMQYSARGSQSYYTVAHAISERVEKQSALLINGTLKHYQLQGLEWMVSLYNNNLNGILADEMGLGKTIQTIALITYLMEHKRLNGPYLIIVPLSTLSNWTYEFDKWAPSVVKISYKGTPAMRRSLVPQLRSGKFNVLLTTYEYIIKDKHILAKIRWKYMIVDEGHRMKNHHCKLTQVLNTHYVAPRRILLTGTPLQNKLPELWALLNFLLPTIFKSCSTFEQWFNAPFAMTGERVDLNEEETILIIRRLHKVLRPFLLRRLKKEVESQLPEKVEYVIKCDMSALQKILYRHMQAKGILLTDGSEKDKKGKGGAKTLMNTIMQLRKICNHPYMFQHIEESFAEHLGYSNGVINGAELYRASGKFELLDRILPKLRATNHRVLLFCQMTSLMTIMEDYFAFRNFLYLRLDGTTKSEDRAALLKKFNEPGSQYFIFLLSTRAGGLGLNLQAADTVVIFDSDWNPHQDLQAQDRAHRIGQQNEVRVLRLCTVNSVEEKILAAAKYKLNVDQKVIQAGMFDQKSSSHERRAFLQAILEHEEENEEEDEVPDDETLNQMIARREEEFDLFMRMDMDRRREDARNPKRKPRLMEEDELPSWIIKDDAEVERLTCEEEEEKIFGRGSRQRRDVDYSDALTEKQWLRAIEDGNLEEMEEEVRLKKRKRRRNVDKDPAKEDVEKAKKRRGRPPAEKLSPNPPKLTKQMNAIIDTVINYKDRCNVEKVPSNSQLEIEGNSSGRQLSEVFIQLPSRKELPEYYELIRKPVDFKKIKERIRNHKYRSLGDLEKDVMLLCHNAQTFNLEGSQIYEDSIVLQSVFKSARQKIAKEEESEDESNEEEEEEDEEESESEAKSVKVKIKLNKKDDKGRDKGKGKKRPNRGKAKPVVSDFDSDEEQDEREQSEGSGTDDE
SMILES,DC50 (BRG1),Dmax (BRG1),DC50 (BRM),BRM IF Degradation Sinf (%) (BRM)
"Nc1nnc(-c2ccccc2O)cc1N1CC2CCC(C1)N2c1ccnc(C#CCN2CCCCC(F)C2)c1 (centres unmarked) [Compound 194, 2-[6-amino-5-[8-[2-[3-(3-fluoroazepan-1-yl)prop-1-ynyl]-4-pyridyl]-3,8-diazabicyclo[3.2.1]octan-3-yl]pyridazin-3-yl]phenol]",< 10 nM,30 to 70%,< 10 nM,F (F indicates −71%-−120%)
"Nc1nnc(-c2ccccc2O)cc1N1CC2CCC(C1)N2c1ccnc(C#CCN2CC(CC(F)F)C2)c1 [Compound 158, 2-[6-amino-5-[8-[2-[3-[3-(2,2-difluoroethyl)azetidin-1-yl]prop-1-ynyl]-4-pyridyl]-3,8-diazabicyclo[3.2.1]octan-3-yl]pyridazin-3-yl]phenol]",< 10 nM,30 to 70%,< 10 nM,F (F indicates −71%-−120%)
"CC1CN(CC#Cc2cc(N3C4CCC3CN(c3cc(-c5ccccc5O)nnc3N)C4)ccn2)CCN1 (centres unmarked) [Compound 40, 2-[6-amino-5-[8-[2-[3-(3-methylpiperazin-1-yl)prop-1-ynyl]-4-pyridyl]-3,8-diazabicyclo[3.2.1]octan-3-yl]pyridazin-3-yl]phenol]",> 100 nM,–,> 100 nM,E (E indicates −30%-−70%)
"Nc1nnc(-c2ccccc2O)cc1N1CC2CCC(C1)N2c1ccnc(C#CCN2CC(F)C2)c1 [Compound 228, 2-[6-amino-5-[8-[2-[3-(3-fluoroazetidin-1-yl)prop-1-ynyl]-4-pyridyl]-3,8-diazabicyclo[3.2.1]octan-3-yl]pyridazin-3-yl]phenol]",< 10 nM,0 to 30%,< 10 nM,E (E indicates −30%-−70%)
"CC1CCCCCN1CC#Cc1cc(N2C3CCC2CN(c2cc(-c4ccccc4O)nnc2N)C3)ccn1 (centres unmarked) [Compound 201, 2-[6-amino-5-[8-[2-[3-(2-methylazepan-1-yl)prop-1-ynyl]-4-pyridyl]-3,8-diazabicyclo[3.2.1]octan-3-yl]pyridazin-3-yl]phenol]",< 10 nM,30 to 70%,< 10 nM,F (F indicates −71%-−120%)
"CC1(F)CN(CC#Cc2cc(N3C4CCC3CN(c3cc(-c5ccccc5O)nnc3N)C4)ccn2)C1 [Compound 173, 2-[6-amino-5-[8-[2-[3-(3-fluoro-3-methyl-azetidin-1-yl)prop-1-ynyl]-4-pyridyl]-3,8-diazabicyclo[3.2.1]octan-3-yl]pyridazin-3-yl]phenol]",10 to 100 nM,30 to 70%,10 to 100 nM,F (F indicates −71%-−120%)
Nc1nnc(-c2ccccc2O)cc1N1CC2CCC(C1)N2c1ccnc(C#CCN2CCOC3(CCC3)C2)c1 [Compound 77],> 100 nM,–,10 to 100 nM,E (E indicates −30%-−70%)
"CNC(=O)[C@H]1CCN(CC#Cc2cc(N3C4CCC3CN(c3cc(-c5ccccc5O)nnc3N)C4)ccn2)C1 [Compound 122, (3S)-1-[3-[4-[3-[3-amino-6-(2-hydroxyphenyl)pyridazin-4-yl]-3,8-diazabicyclo[3.2.1]octan-8-yl]-2-pyridyl]prop-2-ynyl]-N-methyl-pyrrolidine-3-carboxamide]",10 to 100 nM,30 to 70%,10 to 100 nM,F (F indicates −71%-−120%)
"Nc1nnc(-c2ccccc2O)cc1N1CC2CCC(C1)N2c1ccnc(C#CCN2CCCCC2CO)c1 (centres unmarked) [Compound 55, 2-[6-amino-5-[8-[2-[3-[2-(hydroxymethyl)-1-piperidyl]prop-1-ynyl]-4-pyridyl]-3,8-diazabicyclo[3.2.1]octan-3-yl]pyridazin-3-yl]phenol]",10 to 100 nM,30 to 70%,10 to 100 nM,E (E indicates −30%-−70%)
"Nc1nnc(-c2ccccc2O)cc1N1CC2CCC(C1)N2c1ccnc(C#CCN2CC3(CCCO3)C2)c1 [Compound 178, 2-[6-amino-5-[8-[2-[3-(5-oxa-2-azaspiro[3.4]octan-2-yl)prop-1-ynyl]-4-pyridyl]-3,8-diazabicyclo[3.2.1]octan-3-yl]pyridazin-3-yl]phenol]",< 10 nM,30 to 70%,10 to 100 nM,F (F indicates −71%-−120%)
"CC1CC(O)CCN(CC#Cc2cc(N3C4CCC3CN(c3cc(-c5ccccc5O)nnc3N)C4)ccn2)C1 (centres unmarked) [Compound 219, 1-[3-[4-[3-[3-amino-6-(2-hydroxyphenyl)pyridazin-4-yl]-3,8-diazabicyclo[3.2.1]octan-8-yl]-2-pyridyl]prop-2-ynyl]-6-methyl-azepan-4-ol]",< 10 nM,71 to 120%,< 10 nM,F (F indicates −71%-−120%)
"Nc1nnc(-c2ccccc2O)cc1N1CC2CCC(C1)N2c1ccnc(C#CCN2CCCCC2)c1 [Compound 166, 2-(6-amino-5-(8-(2-(3-(piperidin-1-yl)prop-1-yn-1-yl)pyridin-4-yl)-3,8-diazabicyclo[3.2.1]octan-3-yl)pyridazin-3-yl)phenol]",> 100 nM,–,< 10 nM,E (E indicates −30%-−70%)
"Nc1nnc(-c2ccccc2O)cc1N1CC2CCC(C1)N2c1ccnc(C#CCN2CC(O)C2)c1 [Compound 142, 1-[3-[4-[3-[3-amino-6-(2-hydroxyphenyl)pyridazin-4-yl]-3,8-diazabicyclo[3.2.1]octan-8-yl]-2-pyridyl]prop-2-ynyl]azetidin-3-ol]",10 to 100 nM,30 to 70%,10 to 100 nM,E (E indicates −30%-−70%)
"COC[C@@H]1CCN1CC#Cc1cc(N2C3CCC2CN(c2cc(-c4ccccc4O)nnc2N)C3)ccn1 [Compound 186, 2-[6-amino-5-[8-[2-[3-[(2S)-2-(methoxymethyl)azetidin-1-yl]prop-1-ynyl]-4-pyridyl]-3,8-diazabicyclo[3.2.1]octan-3-yl]pyridazin-3-yl]phenol]",10 to 100 nM,30 to 70%,< 10 nM,E (E indicates −30%-−70%)
"Nc1nnc(-c2ccccc2O)cc1N1CC2CCC(C1)N2c1ccnc(C#CCN2CCC(F)C2)c1 (centres unmarked) [Compound 133, 2-[6-amino-5-[8-[2-[3-(3-fluoropyrrolidin-1-yl)prop-1-ynyl]-4-pyridyl]-3,8-diazabicyclo[3.2.1]octan-3-yl]pyridazin-3-yl]phenol]",< 10 nM,0 to 30%,< 10 nM,E (E indicates −30%-−70%)
"Nc1nnc(-c2ccccc2O)cc1N1CC2CCC(C1)N2c1ccnc(C#CCN2CC3(C2)C(CF)CCS3(=O)=O)c1 (centres unmarked) [Compound 177, 2-[6-amino-5-[8-[2-[3-[8-(fluoromethyl)-5,5-dioxo-5lambda6-thia-2-azaspiro[3.4]octan-2-yl]prop-1-ynyl]-4-pyridyl]-3,8-diazabicyclo[3.2.1]octan-3-yl]pyridazin-3-yl]phenol]",10 to 100 nM,30 to 70%,10 to 100 nM,E (E indicates −30%-−70%)
"Nc1nnc(-c2ccccc2O)cc1N1CC2CCC(C1)N2c1ccnc(C#CCN2CCCC(O)C2)c1 (centres unmarked) [Compound 50, 1-[3-[4-[3-[3-amino-6-(2-hydroxyphenyl)pyridazin-4-yl]-3,8-diazabicyclo[3.2.1]octan-8-yl]-2-pyridyl]prop-2-ynyl]piperidin-3-ol]",> 100 nM,30 to 70%,10 to 100 nM,E (E indicates −30%-−70%)
